Experimental data from US20230364084A1, “METHODS FOR PREVENTING OR TREATING CONDITIONS RELATED TO PIKFYVE ACTIVITY” (The Regents of the University of Michigan, priority 2020, published 2023).

Columns and labels:
DU145 cells = test: cellular vacuolization morphology with autophagy inhibitors; assay type: cell-based, human; details: combination with ESK981, six hours
From the text: The nature of the ESK981-associated cellular vacuolization was investigated in combination with various autophagic pathway inhibitors.

PC3 and DU145 cells = test: autophagic flux detection (GFP-LC3-RFP-LC3ΔG probe); assay type: cell-based, human; details: PC3 or DU145 cells, 24 hours
Protocol: (§1) For autophagic flux detection, 10,000 cells were plated in 96-well plates and incubated with various compounds in complete medium for 24 hours. GFP and RFP fluorescence intensities were measured on a TECAN M1000 plate reader.

CXCL10 in VCaP cells = test: human CXCL10 ELISA of conditioned medium; assay type: cell-based; details: VCaP cells, 24 hours
Protocol: Conditioned medium was collected after 24 hours of drug incubation. ELISA was performed using a human CXCL10 ELISA kit (Cat No. KAC2361, ThermoFisher), or a mouse CXCL10 ELISA kit (Cat No. ab214563, Abcam) according to the manufacturer's instructions.

[1] = tested on: B cell non-Hodgkin's lymphoma; details: cited from earlier work
[2] = tested on: lysosomes in VCaP, LNCaP, PC3 and DU145 cells; test: LysoTracker Green flow cytometry; assay type: cell-based, human; details: bafilomycin A1 100 nM with ESK981 300 nM, 24 hours
Protocol: Cells were grown in 6-well plates and treated with various drugs. After 24 hours, cells were stained with LysoTracker® Green DND-26 (Invitrogen), and green fluorescence signal was analyzed by flow cytometry.

[3] = tested on: GFP-LC3-RFP-LC3ΔG-expressing Myc-CaP cells; test: autophagic flux detection in Myc-CaP cells; assay type: cell-based, mouse; details: 24 hours
Protocol: as §1

[4] = tested on: DU145 prostate cancer cells; test: cell viability screen with a 167-compound tyrosine kinase inhibitor library; assay type: cell-based, human; details: 300 nM
Protocol: FIG. 1: ESK981 inhibits the growth of diverse preclinical models of prostate cancer and is associated with a unique vacuolization morphology. • (a) The percentage viabilities of DU145 cells treated with 300 nM ESK981 or 167 other tyrosine kinase inhibitors when compared to a vehicle control. The top five most inhibitory compounds, as well as cabozantinib and crizotinib (highlighted in orange), and their respective targets are listed in the table. ESK981 is highlighted in red. • (b) Morphological differences of nuclear-restricted RFP-expressing DU145 cells treated with 300 nM ESK981, crizotinib, or cabozantinib. • (c) A long-term survival assay was used to calculate the half-maximum inhibitory concentration (IC50) after two weeks of incubation with the serial dilutions of indicated drugs. (Top) Long-term survival assays of VCaP prostate cancer cells exposed to MTKIs. (Bottom) IC50 of ESK981, crizotinib, and cabozantinib in a panel of prostate cancer cell lines. • (d) ESK981 was effective against enzalutamide (Enza)-resistant cell lines. […] Long-term survival (two weeks) was assayed by absorbance of crystal violet at OD590. • (e) VCaP-RFP cells were cultured for three days in ultralow attachment plates to form 3D tumor spheroids prior to the indicated drug treatments. […] Fluorescence intensity of 3D spheroids was measured by IncuCyte ZOOM. • (f) Castration-resistant VCaP tumors were established subcutaneously in castrated SCID mice, and mice were randomized into three groups, which received vehicle, 30 mg/kg, or 60 mg/kg ESK981 by oral gavage once per day for the indicated dosing schedule. Tumor volumes were monitored by a digital caliper twice per week. Data were analyzed by unpaired t test and presented as mean±SEM. *p<0.05; **p<0.01. • (g) AR^+ prostate patient-derived xenograft (PDX) MDA-PCa-146-12 were implanted subcutaneously in non-castrated SCID mice, and mice were randomized into two groups receiving either once daily vehicle or 30 mg/kg ESK981 for five days each week. […] Tumor volumes were monitored twice per week. […]

[5] = tested on: prostate cancer cell lines (VCaP, LNCaP, 22RV1, LNCaP-AR, PC3, DU145); test: long-term survival assay (14 days, crystal violet); assay type: cell-based, human; details: panel of prostate cancer cell lines, two weeks
Protocol: Single cell suspensions were seeded into 96-well plates at a density of 1,000-30,000 cells per well. Long-term survival was determined after 14 days of drug incubation. Viable cells were fixed with 4% formaldehyde and subsequently stained with 1% crystal violet. IC50 was calculated using GraphPad Prism.

[6] = tested on: LC3-II in prostate cancer cell lines; test: LC3 lipidation western blot; assay type: cell-based, human; details: VCaP cells, 24 hours
Protocol: Cell lysates were harvested in Pierce RIPA Lysis buffer (Thermo Scientific) containing protease inhibitor cocktail tablets (Roche) and phosphatase inhibitor cocktail (Millipore). Protein concentration was measured using the DC Protein Assay (Bio-Rad) to ensure an equal amount of protein was loaded onto a gel. The denatured lysates were separated on NuPage 4-12% Bis-Tris Midi Protein gels (Novex) and transferred to 0.45-μm PVDF transfer membrane (Immobilon) using a TransBlot Turbo dry transfer machine (Bio-Rad). The membrane was incubated in blocking buffer (5% non-fat dry milk, Tris-buffered saline with 0.1% Tween 20) for 1 hour at room temperature. The membrane was then incubated with the listed antibodies for 1 hour at room temperature, followed by overnight incubation at 4° C. Chemiluminescent detection using ECL Prime (Amersham) and HyBlot CL autoradiography film (Denville Scientific) was used to visualize the blots. Antibodies used in the immunoblotting assays were against ATG5 (Cat No. 12994S, Cell Signaling Technology), ATG7 (Cat No. 8558S, Cell Signaling Technology), ULK1 (Cat No. 8054S, Cell Signaling Technology), Beclin1 (Cat No. 4122S, Cell Signaling Technology), FIP200 (Cat No. 12436S, Cell Signaling Technology), LC3A/B (Cat No. 127415, Cell Signaling Technology), PIKfyve (Cat No. AF7885, R&D Systems), and GAPDH (Cat No. 3683S, Cell Signaling Technology).

advanced prostate cancer = details: two phase III trials; cited from earlier work
metastatic CRPC (mCRPC) = details: men with metastatic CRPC; cited from earlier work

Compound: Cn1cnc(N)c2ncnc1-2 [3-methyladenine]
- effect on the cellular vacuolization effects of ESK981 (DU145 cells): partially negated

Compound: CCC(=O)N1CCN(c2ccc(-n3c(=O)ccc4cnc5ccc(-c6cnc7ccccc7c6)cc5c43)cc2C(F)(F)F)CC1 [Torin1]
- autophagic flux (GFP/RFP ratio) (PC3 and DU145 cells): decreased the GFP/RFP ratio
- CXCL10 induction / secretion (CXCL10 in VCaP cells): marginally increased CXCL10 secretion, but only at higher concentrations

Compound: Cc1cccc(/C=N/Nc2cc(N3CCOCC3)nc(OCCc3ccccn3)n2)c1 [apilimod]
- tumor inhibition [1]: tumor inhibitory effects

Compound: CO/C1=C\C(C)=C\[C@@H](C)[C@@H](O)[C@@H](C)C/C(C)=C/C=C/[C@H](OC)[C@@H]([C@@H](C)[C@@H](O)[C@H](C)[C@@]2(O)C[C@@H](O)[C@H](C)[C@@H](C(C)C)O2)OC1=O [bafilomycin A1]
- effect on the cellular vacuolization effects of ESK981 (DU145 cells): completely blocked
- effect on the ESK981-increased lysosome quantity [2]: readily neutralized
- autophagic flux (GFP/RFP ratio) (PC3 and DU145 cells): low autophagic flux
- autophagic flux [3]: inhibited

Compound: CCN(CC)CCCC(C)Nc1ccnc2cc(Cl)ccc12 (centres unmarked) [chloroquine]
- effect on the cellular vacuolization effects of ESK981 (DU145 cells): completely blocked
- autophagic flux [3]: inhibited

Compound: C[C@@H](Oc1cc(-c2cnn(C3CCNCC3)c2)cnc1N)c1c(Cl)ccc(F)c1Cl [crizotinib, reference compound]
- growth inhibition (cell viability) [4]: no such growth inhibitory effects
- IC50 in words [5]: micromolar
- induction of LC3-II ([6]; 300 nM): did not induce an increase in LC3-II
- induction of LC3-II ([6]; 1 μM): only weakly induced an increase in LC3-II

Compound: Nc1ccn([C@@H]2O[C@H](CO)[C@@H](O)C2(F)F)c(=O)n1 [gemcitabine]
- CXCL10 induction / secretion (CXCL10 in VCaP cells): robust CXCL10 inducer

Compound: ipilimumab: CTLA4 inhibitor
- overall survival (advanced prostate cancer): failed to improve overall survival

Compound: pembrolizumab: PD-1 inhibitor
- response rates (metastatic CRPC (mCRPC)): 3-5%
